Test results reported in ChEMBL document CHEMBL1201862, “PubChem BioAssay data set” (2004).
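Exposure lasted 48 hours, with cells grown in 96-well plates and compounds tested at five concentrations. The concentration for 50% growth inhibition is given as GI50.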 Activity calls are given as the source filed them. No stated cut-off is given here; in the data, active = GI50 up to about 1.1 µM and inactive = higher.

Experiments:
Assay in all cases: growth of human tumour cells (NCI), 48 h
[1] = test system: SF-539
[2] = test system: OVCAR-5
[3] = test system: DU-145
[4] = test system: HL-60
[5] = test system: SK-MEL-2
[6] = test system: NCI-H460
[7] = test system: SF-295
[8] = test system: UO-31
[9] = test system: MDA-MB-231
[10] = test system: A498
[11] = test system: TK-10
[12] = test system: NCI-H226
[13] = test system: NCI/ADR-RES
[14] = test system: SNB-75
[15] = test system: T47D
[16] = test system: RPMI-8226
[17] = test system: LOX IMVI
[18] = test system: SNB-19
[19] = test system: K562
[20] = test system: MOLT-4

Row | SMILES | GI50 [1] | GI50 [2] | GI50 [3] | GI50 [4] | GI50 [5] | GI50 [6] | GI50 [7] | GI50 [8] | GI50 [9] | GI50 [10] | GI50 [11] | GI50 [12] | GI50 [13] | GI50 [14] | GI50 [15] | GI50 [16] | GI50 [17] | GI50 [18] | GI50 [19] | GI50 [20]
1 | Oc1cc(O)c2c(c1)OC(c1ccc(O)c(O)c1)C(O)C2c1c(O)cc(O)c2c1OC(c1ccc(O)c(O)c1)C(O)C2 (stereo not given) | > 100 µM (inactive) | > 100 µM (inactive) | > 100 µM (inactive) | 0.0323 µM (active) | > 100 µM (inactive) | 85.1 µM (inactive) | > 100 µM (inactive) | > 100 µM (inactive) | > 100 µM (inactive) | 45.5 µM (inactive) | > 100 µM (inactive) | > 100 µM (inactive) | > 100 µM (inactive) | > 100 µM (inactive) | > 100 µM (inactive) | > 100 µM (inactive) | > 100 µM (inactive) | > 100 µM (inactive) |  | 
2 | COc1ccc(NC(=S)C#N)cc1 | > 100 µM (inactive) | > 100 µM (inactive) | > 100 µM (inactive) | 53 µM (inactive) | > 100 µM (inactive) |  | > 100 µM (inactive) |  | > 100 µM (inactive) | 51.9 µM (inactive) | > 100 µM (inactive) | > 100 µM (inactive) | > 100 µM (inactive) | > 100 µM (inactive) | 85.7 µM (inactive) | 38.7 µM (inactive) | > 100 µM (inactive) | > 100 µM (inactive) | 49.3 µM (inactive) | 
3 | Nc1nc(Cl)cc(NCC2(CO)COC2)n1 | > 100 µM (inactive) | > 100 µM (inactive) | > 100 µM (inactive) | > 100 µM (inactive) | > 100 µM (inactive) | > 100 µM (inactive) | > 100 µM (inactive) | > 100 µM (inactive) | > 100 µM (inactive) | > 100 µM (inactive) | > 100 µM (inactive) | > 100 µM (inactive) | > 100 µM (inactive) | > 100 µM (inactive) | 53.8 µM (inactive) | > 100 µM (inactive) | > 100 µM (inactive) |  | > 100 µM (inactive) | > 10 µM (inactive)
4 | NC(C(=O)O)C(O)c1c[nH]cn1 (stereo not given) | > 100 µM (inactive) | > 100 µM (inactive) | > 100 µM (inactive) | > 100 µM (inactive) | > 100 µM (inactive) | > 100 µM (inactive) | > 100 µM (inactive) |  | > 100 µM (inactive) | > 100 µM (inactive) | > 100 µM (inactive) | > 100 µM (inactive) | > 100 µM (inactive) | > 100 µM (inactive) | > 100 µM (inactive) | > 100 µM (inactive) | > 100 µM (inactive) | > 100 µM (inactive) | > 100 µM (inactive) | > 100 µM (inactive)
5 | CC(O)C1(CNc2cc(Cl)nc(N)n2)CCCC1 (stereo not given) | > 100 µM (inactive) | > 100 µM (inactive) | > 100 µM (inactive) | > 100 µM (inactive) | > 100 µM (inactive) | > 100 µM (inactive) | > 100 µM (inactive) | > 100 µM (inactive) | > 100 µM (inactive) | > 100 µM (inactive) | > 100 µM (inactive) | > 100 µM (inactive) | > 100 µM (inactive) | 71 µM (inactive) | > 100 µM (inactive) | > 100 µM (inactive) | > 100 µM (inactive) | > 100 µM (inactive) | > 100 µM (inactive) | > 100 µM (inactive)
6 | COC(=O)[C@@H](NC(=O)N(Cc1ccccc1)C[C@H](CC(C)C)NC(=O)[C@@H](NC(=O)OC(C)(C)C)C(C)C)C(C)C | > 100 µM (inactive) | > 100 µM (inactive) | > 100 µM (inactive) | > 100 µM (inactive) | > 100 µM (inactive) | > 100 µM (inactive) | > 100 µM (inactive) | > 100 µM (inactive) | > 100 µM (inactive) | > 100 µM (inactive) | > 100 µM (inactive) | > 100 µM (inactive) | > 100 µM (inactive) | 33.7 µM (inactive) | > 100 µM (inactive) | > 100 µM (inactive) | > 100 µM (inactive) | > 100 µM (inactive) | > 100 µM (inactive) | > 100 µM (inactive)
7 | Cc1nc2c(o1)C(=O)c1ccccc1/C2=N/c1ccc(N2CCOCC2)cc1 | 2.49 µM (inactive) | 18.2 µM (inactive) | 3.31 µM (inactive) | 1.83 µM (inactive) | 2.75 µM (inactive) | 11.1 µM (inactive) | 2.52 µM (inactive) | 3.43 µM (inactive) | 2.7 µM (inactive) | 18.7 µM (inactive) | 48 µM (inactive) | 20.5 µM (inactive) | 2.88 µM (inactive) | 2.46 µM (inactive) | 3.01 µM (inactive) | 3.38 µM (inactive) | 2.01 µM (inactive) | 8.47 µM (inactive) | 3.28 µM (inactive) | 4.91 µM (inactive)
8 | CO/C(N)=C(C#N)/N=C/c1cccnc1 | > 100 µM (inactive) | > 100 µM (inactive) | > 100 µM (inactive) | > 100 µM (inactive) | > 100 µM (inactive) |  | > 100 µM (inactive) |  | > 100 µM (inactive) | > 100 µM (inactive) | > 100 µM (inactive) | > 100 µM (inactive) | > 100 µM (inactive) | > 100 µM (inactive) | > 100 µM (inactive) | > 100 µM (inactive) | > 100 µM (inactive) |  | > 100 µM (inactive) | > 100 µM (inactive)
9 | O=C(CC(C(=O)c1cccs1)c1cccs1)c1ccsc1 (stereo not given) | 67 µM (inactive) | > 100 µM (inactive) | > 100 µM (inactive) | 29 µM (inactive) | 35.7 µM (inactive) | 42.4 µM (inactive) |  | 43.5 µM (inactive) | 38 µM (inactive) | 49.7 µM (inactive) | > 100 µM (inactive) | > 100 µM (inactive) | 32.7 µM (inactive) | 40.2 µM (inactive) | 39.6 µM (inactive) | 36.1 µM (inactive) | 10.2 µM (inactive) | 75.2 µM (inactive) | 46 µM (inactive) | 46.2 µM (inactive)
10 | Brc1cccc[n+]1-c1ccc2cc(-[n+]3ccccc3Br)ccc2c1 | 19.3 µM (inactive) | 39.8 µM (inactive) | 14.8 µM (inactive) | 28.6 µM (inactive) | 32.2 µM (inactive) | 30.2 µM (inactive) | 53.3 µM (inactive) | 18.1 µM (inactive) | 24.2 µM (inactive) | > 100 µM (inactive) | 18.3 µM (inactive) | > 100 µM (inactive) | 53.3 µM (inactive) |  | 22.3 µM (inactive) | 19.5 µM (inactive) | 16.3 µM (inactive) | 72.8 µM (inactive) | 59.2 µM (inactive) | 
11 | C[C@@]1(c2ccccc2)O[C@@H]2C[C@H]3[C@@H]4CCC5=CC(=O)C=C[C@]5(C)[C@@]4(F)[C@@H](O)C[C@]3(C)[C@]2(C(=O)CO)O1 [AMCINAFIDE] |  | 15.6 µM (inactive) | 20.1 µM (inactive) | 18.8 µM (inactive) | 14.4 µM (inactive) | 14.6 µM (inactive) | 16.7 µM (inactive) | 18.1 µM (inactive) | 11.1 µM (inactive) | 18 µM (inactive) | 19.5 µM (inactive) | 15.8 µM (inactive) | 15 µM (inactive) | 26.9 µM (inactive) | 20.2 µM (inactive) | < 0.01 µM (active) | 23.8 µM (inactive) | 24.7 µM (inactive) | 12.5 µM (inactive) | 
